In ChEMBL document CHEMBL1146444, “RKS-1778, a new mammalian cell-cycle inhibitor and a key intermediate of the [11]cytochalasin group” (J Nat Prod, 1997):
The source made the active and inactive calls. No cut-off for these calls is given here.

Legend:
[1] = Cell cycle arrest in mouse temperature-sensitive FT210 cells by accumulation at M phase at 2.0 uM by flow cytometry; type: functional, cell-based
[2] = Cell cycle arrest in mouse temperature-sensitive FT210 cells by accumulation at M phase at 2.1 uM by flow cytometry; type: functional, cell-based

Row | SMILES | Activity [1] | Activity [2]
1 | CC(=O)O[C@@H]1/C=C/[C@](C)(O)C[C@@H](C)C/C=C/[C@H]2C=C(C)[C@@H](C)[C@H]3[C@H](Cc4ccccc4)NC(=O)[C@]321 | Active | Active
2 | CC(=O)O[C@@H]1/C=C/[C@](C)(O)C[C@@H](C)C/C=C/[C@H]2[C@@H]3O[C@]3(C)[C@@H](C)[C@H]3[C@H](Cc4ccccc4)NC(=O)[C@@]312 | Active | Active
